Data taken from ChEMBL document CHEMBL5338773, “First-in-Class Selective Inhibitors of the Lysine Acetyltransferase KAT8” (J Med Chem, 2023).
The source made the active and inactive calls. The calls are words filed in the database; no cut-off is given here.

Tests used:
HCT-116 [1] = assay: Induction of apoptosis in human HCT-116 cells assessed as increase in apoptotic cells at 100 uM incubated for 72 hrs in presence of chloroquine by Annexin V-FITC staining based flow cytometry; format: functional, cell-based
[2] = target: T1, Protein deacetylase HDAC6 (Homo sapiens) (UniProt Q9UBN7); assay: Inhibition of human recombinant KDAC6 using Boc-Lys-(Ac)-AMC as substrate at 50 to 100 uM incubated for 45 mins by fluorescence microplate reader analysis; settings: dose 50-100 µM
T1 sequence (whole entry): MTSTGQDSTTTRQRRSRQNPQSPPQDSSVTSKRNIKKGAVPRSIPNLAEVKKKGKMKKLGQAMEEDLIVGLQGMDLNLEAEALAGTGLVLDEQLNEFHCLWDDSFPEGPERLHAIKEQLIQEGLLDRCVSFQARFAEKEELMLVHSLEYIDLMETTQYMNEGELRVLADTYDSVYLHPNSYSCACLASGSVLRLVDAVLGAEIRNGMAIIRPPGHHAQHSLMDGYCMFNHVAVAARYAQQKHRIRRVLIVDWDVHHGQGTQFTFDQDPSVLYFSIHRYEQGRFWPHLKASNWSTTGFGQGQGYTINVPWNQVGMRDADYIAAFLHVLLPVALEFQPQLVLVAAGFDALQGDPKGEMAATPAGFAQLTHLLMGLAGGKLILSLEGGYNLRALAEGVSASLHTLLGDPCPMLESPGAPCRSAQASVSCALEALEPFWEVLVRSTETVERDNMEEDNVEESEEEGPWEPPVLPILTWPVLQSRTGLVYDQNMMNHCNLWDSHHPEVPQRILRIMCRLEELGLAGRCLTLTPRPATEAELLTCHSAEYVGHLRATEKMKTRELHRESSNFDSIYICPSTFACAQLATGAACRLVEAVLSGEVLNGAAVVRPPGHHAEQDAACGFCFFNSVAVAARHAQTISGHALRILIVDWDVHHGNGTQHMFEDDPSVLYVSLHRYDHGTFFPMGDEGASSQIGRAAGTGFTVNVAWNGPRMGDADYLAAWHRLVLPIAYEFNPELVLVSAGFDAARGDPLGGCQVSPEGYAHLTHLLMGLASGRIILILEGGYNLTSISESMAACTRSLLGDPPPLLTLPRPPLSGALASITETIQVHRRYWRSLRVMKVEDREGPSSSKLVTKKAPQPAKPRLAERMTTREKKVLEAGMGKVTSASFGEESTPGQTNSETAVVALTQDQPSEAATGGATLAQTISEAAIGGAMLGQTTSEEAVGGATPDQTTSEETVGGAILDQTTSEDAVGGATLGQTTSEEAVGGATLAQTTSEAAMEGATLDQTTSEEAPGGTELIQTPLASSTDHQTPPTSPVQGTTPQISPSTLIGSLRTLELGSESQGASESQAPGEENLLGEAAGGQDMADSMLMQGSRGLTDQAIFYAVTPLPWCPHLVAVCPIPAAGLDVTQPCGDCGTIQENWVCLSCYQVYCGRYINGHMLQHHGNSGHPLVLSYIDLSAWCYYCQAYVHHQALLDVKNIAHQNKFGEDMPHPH

HCT-116 [3] = assay: Induction of cell cycle arrest in human HCT-116 cells assessed as increase in number of cells at sub-G1 phase with DNA hypodiploid at 50 uM incubated for 72 hrs by PI-staining based flow cytometry (Rvb=2%); format: functional
[4] = target: T2, Histone acetyltransferase KAT8 (Homo sapiens) (UniProt Q9H7Z6); assay: Time dependent inhibition of N-terminal 6His tagged KAT8 (173 to 458 residues) (unknown origin) expressed in Escherichia coli BL21(DE3) using biotinylated histone H4 peptide and [3H]Acetyl-CoA as substrates at 200 uM preincubated for 5 to 120 mins followed by substrate addition and measured after 4 hrs by MicroBeta microplate counter analysis; settings: time 245-360 min
T2 sequence (whole entry): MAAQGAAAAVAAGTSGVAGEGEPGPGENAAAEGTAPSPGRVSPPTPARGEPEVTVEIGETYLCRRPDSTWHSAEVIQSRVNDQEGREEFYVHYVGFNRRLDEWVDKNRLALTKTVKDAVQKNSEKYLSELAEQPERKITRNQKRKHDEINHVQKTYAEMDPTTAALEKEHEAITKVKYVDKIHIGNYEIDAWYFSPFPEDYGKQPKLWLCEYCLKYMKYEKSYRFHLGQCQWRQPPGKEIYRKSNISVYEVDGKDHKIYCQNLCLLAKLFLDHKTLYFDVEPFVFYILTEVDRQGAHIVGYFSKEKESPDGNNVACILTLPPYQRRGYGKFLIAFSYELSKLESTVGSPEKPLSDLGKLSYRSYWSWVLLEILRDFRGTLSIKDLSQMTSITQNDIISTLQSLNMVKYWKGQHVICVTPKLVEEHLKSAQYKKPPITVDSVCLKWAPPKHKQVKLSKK

[5] = target: Histone deacetylase 2 (Homo sapiens) (UniProt Q92769); assay: Inhibition of human recombinant KDAC2 using Boc-Lys-(Ac)-AMC as substrate at 50 to 100 uM incubated for 45 mins by fluorescence microplate reader analysis; settings: dose 50-100 µM
HCT-116 [6] = assay: Antiproliferative activity against human HCT-116 cells assessed as cell proliferation inhibition at 10 to 100 uM incubated for 72 hrs by MTT assay; format: functional, cell-based; settings: dose 10-100 µM
Homo sapiens = organism: Homo sapiens; assay: Inhibition of human recombinant KDAC1 using Boc-Lys-(Ac)-AMC as substrate at 50 to 100 uM incubated for 45 mins by fluorescence microplate reader analysis; settings: dose 50-100 µM
[7] = target: T2, Histone acetyltransferase KAT8 (Homo sapiens); assay: Binding affinity to KAT8 in human HT-29 cells at 59 degreeC at 100 nM incubated for 4 hrs by […] analysis; format: cell-based
[8] = target: Histone acetyltransferase KAT2A (Homo sapiens) (UniProt Q92830); assay: Inhibition of recombinant human KAT2A (323 to 837 residues) using histone H3 peptide and [3H]-acetyl-coA as substrates at 200 uM incubated for 1 hrs by liquid scintillation counter analysis
NCI-H1299 = assay: Induction of autophagy in human NCI-H1299 cells stably expressing EGFP-LC3 assessed as increase in autophagosome formation by measuring fluorescence spots at 10 to 100 uM incubated for 48 hrs by Fluorescence microscopy; format: functional, cell-based; settings: dose 10-100 µM
[9] = target: T2, Histone acetyltransferase KAT8 (Homo sapiens); assay: Reversible inhibition of N-terminal 6His tagged KAT8 (173 to 458 residues) (unknown origin) expressed in Escherichia coli BL21(DE3) using biotinylated histone H4 peptide and [3H]Acetyl-CoA as substrates at 10XIC50 preincubated for 30 mins followed by dilution and substrate addition and measured upto 240 mins by MicroBeta microplate counter analysis; settings: time 270.0 min
[10] = target: Histone acetyltransferase KAT2B (Homo sapiens) (UniProt Q92831); assay: Inhibition of recombinant human KAT2B (492 to 658 residues) using histone H3 peptide and [3H]-acetyl-coA as substrates at 200 uM incubated for 1 hrs by liquid scintillation counter analysis
[11] = Cytotoxicity against human Intestinal epithelial cells assessed as inhibition of cell viability at 25 to 200 uM incubated for 72 hrs by MTT assay; format: toxicity, cell-based; settings: dose 25-200 µM
HT-29 = assay: Induction of cell cycle arrest in human HT-29 cells assessed as increase in number of cells at sub-G1 phase with DNA hypodiploid at 50 uM incubated for 72 hrs by PI-staining based flow cytometry (Rvb=2%); format: functional
U-937 = assay: Antiproliferative activity against human U-937 cells assessed as cell proliferation inhibition at 10 to 100 uM incubated for 72 hrs by MTT assay; format: functional, cell-based; settings: dose 10-100 µM

Sequence of Histone deacetylase 2 (Homo sapiens) (Q92769 whole entry): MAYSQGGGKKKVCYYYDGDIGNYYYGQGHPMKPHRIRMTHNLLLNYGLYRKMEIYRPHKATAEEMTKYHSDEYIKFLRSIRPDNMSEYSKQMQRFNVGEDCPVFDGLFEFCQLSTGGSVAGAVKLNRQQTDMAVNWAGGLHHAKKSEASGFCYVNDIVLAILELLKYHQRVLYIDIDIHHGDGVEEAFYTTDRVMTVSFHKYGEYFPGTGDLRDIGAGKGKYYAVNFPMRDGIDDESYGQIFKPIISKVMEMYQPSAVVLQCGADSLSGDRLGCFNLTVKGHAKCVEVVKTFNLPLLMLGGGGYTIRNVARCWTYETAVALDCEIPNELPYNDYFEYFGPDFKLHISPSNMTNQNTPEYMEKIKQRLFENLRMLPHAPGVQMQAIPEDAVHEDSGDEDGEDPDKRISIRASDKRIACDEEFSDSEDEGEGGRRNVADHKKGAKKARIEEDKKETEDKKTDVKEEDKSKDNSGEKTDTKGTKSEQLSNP
Sequence of Histone acetyltransferase KAT2B (Homo sapiens) (Q92831 whole entry, looked up, the tested form may be a part): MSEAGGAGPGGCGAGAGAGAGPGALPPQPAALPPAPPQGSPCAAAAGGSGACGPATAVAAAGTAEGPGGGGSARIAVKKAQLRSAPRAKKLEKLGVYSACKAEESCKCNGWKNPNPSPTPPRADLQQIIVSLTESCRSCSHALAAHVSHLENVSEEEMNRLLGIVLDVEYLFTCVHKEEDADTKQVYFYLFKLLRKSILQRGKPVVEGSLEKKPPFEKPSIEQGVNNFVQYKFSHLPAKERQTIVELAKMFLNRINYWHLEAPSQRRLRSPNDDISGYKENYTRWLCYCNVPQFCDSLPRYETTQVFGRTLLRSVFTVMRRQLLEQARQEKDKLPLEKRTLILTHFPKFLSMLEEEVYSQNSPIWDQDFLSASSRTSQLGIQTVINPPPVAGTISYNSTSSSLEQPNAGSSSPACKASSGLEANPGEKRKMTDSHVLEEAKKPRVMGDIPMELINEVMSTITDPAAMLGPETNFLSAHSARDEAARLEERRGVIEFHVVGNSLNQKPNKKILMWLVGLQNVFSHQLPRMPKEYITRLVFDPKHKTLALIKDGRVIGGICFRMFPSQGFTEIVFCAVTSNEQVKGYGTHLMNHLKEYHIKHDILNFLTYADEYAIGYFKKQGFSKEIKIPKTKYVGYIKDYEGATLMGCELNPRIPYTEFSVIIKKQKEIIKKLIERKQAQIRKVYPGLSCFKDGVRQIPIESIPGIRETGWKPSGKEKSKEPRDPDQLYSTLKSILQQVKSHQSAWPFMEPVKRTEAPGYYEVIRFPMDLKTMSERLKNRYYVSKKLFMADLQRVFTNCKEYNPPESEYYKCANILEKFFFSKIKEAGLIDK
Sequence of Histone acetyltransferase KAT2A (Homo sapiens) (Q92830 2-837 limits assumed): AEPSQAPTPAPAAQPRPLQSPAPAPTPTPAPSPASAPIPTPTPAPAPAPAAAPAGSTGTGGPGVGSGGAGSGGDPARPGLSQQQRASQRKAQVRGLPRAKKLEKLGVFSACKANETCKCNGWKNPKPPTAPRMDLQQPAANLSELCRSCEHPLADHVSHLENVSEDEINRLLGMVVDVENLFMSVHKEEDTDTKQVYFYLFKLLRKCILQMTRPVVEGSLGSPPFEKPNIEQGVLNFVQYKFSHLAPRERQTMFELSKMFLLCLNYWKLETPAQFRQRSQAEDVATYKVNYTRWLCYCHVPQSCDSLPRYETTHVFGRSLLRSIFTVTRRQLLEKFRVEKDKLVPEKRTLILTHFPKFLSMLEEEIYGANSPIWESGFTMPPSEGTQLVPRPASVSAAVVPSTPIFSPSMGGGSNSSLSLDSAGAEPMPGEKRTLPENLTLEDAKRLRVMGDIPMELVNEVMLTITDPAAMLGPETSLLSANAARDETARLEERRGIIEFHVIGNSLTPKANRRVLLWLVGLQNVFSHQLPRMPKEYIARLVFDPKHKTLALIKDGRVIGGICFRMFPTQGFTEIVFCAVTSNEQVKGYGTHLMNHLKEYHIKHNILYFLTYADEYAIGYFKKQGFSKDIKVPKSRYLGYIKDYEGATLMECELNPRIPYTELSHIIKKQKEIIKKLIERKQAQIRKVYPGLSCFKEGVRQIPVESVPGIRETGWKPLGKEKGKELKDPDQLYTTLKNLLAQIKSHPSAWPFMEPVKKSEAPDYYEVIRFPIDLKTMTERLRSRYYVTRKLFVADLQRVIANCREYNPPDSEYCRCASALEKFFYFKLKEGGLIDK

| inhibition [2] | inhibition [4] | inhibition [5] | inhibition (Homo sapiens) | Activity [7] | inhibition [8] | inhibition [9] | inhibition [10] | SMILES | Activity (HCT-116 [1]) | Activity (HCT-116 [3]) [%] | Activity (HCT-116 [6]) | Activity (NCI-H1299) | Activity [11] | Activity (HT-29) [%] | Activity (U-937) |
| --- | --- | --- | --- | --- | --- | --- | --- | --- | --- | --- | --- | --- | --- | --- | --- |
| inactive | inactive | inactive | inactive | Active | inactive | Active | inactive | O=C(O)c1ccc(N2N=C(c3ccccc3)/C(=C/c3ccc[nH]3)C2=O)cc1 | Active | 7 | Dose-Dependent Effect | Active | Non-Toxic | 8 | Dose-Dependent Effect |
| inactive | inactive | inactive | inactive | Active | inactive | Active | inactive | CC1=NN(c2ccc(C(=O)O)cc2)C(=O)/C1=C\c1ccc[nH]1 | Active | 3 | Dose-Dependent Effect | Active | Non-Toxic | 7 | Dose-Dependent Effect |
